The values below are quoted from earlier work in patent EP2893919B1, “Formulation of aprepitant with enhanced solubility” (SANOFI, priority 2014, dated 2015).

For data set [1] the following is noted: pH range 2 to 10.
The subject of data set [2] is Caco-2.

On to `C[C@@H](O[C@H]1OCCN(Cc2n[nH]c(=O)[nH]2)[C@H]1c1ccc(F)cc1)c1cc(C(F)(F)F)cc(C(F)(F)F)c1` [Aprepitant, 5-([(2R,3S)-2-((R)-1-[3,5-bis(trifluoromethyl)phenyl]ethoxy)-3-(4-fluorophenyl)morpholino]methyl)-1H-1,2,4-triazol-3(2H)-one], for which the solubility in water in data set [1] is recorded as less than 10 µg/mL. In data set [2], the Caco-2 permeability was 7.85 ×10⁻⁶ cm/s.
